Assay results taken from patent US20240376099A1, “COMPOUNDS AND COMPOSITIONS AS INHIBITORS OF ENDOSOMAL TOLL-LIKE RECEPTORS” (Novartis AG, priority 2016, published 2024).

Legend:
TLR8 = biological target: T1, TLR8 (Homo sapiens, UniProt Q9NR97); assay: huPBMC TLR8 Antagonist IL-6 TR-FRET Assay; assay type: cell-based; design: Fresh blood was collected from normal human donors; endogenous in cells; host or cells: human PBMCs from fresh donor blood; details: human PBMCs stimulated with ssRNA40 1 μg/ml (DOTAP), 14-16 hrs; IL-6 TR-FRET read-out
T1 sequence (Q9NR97 27-1041): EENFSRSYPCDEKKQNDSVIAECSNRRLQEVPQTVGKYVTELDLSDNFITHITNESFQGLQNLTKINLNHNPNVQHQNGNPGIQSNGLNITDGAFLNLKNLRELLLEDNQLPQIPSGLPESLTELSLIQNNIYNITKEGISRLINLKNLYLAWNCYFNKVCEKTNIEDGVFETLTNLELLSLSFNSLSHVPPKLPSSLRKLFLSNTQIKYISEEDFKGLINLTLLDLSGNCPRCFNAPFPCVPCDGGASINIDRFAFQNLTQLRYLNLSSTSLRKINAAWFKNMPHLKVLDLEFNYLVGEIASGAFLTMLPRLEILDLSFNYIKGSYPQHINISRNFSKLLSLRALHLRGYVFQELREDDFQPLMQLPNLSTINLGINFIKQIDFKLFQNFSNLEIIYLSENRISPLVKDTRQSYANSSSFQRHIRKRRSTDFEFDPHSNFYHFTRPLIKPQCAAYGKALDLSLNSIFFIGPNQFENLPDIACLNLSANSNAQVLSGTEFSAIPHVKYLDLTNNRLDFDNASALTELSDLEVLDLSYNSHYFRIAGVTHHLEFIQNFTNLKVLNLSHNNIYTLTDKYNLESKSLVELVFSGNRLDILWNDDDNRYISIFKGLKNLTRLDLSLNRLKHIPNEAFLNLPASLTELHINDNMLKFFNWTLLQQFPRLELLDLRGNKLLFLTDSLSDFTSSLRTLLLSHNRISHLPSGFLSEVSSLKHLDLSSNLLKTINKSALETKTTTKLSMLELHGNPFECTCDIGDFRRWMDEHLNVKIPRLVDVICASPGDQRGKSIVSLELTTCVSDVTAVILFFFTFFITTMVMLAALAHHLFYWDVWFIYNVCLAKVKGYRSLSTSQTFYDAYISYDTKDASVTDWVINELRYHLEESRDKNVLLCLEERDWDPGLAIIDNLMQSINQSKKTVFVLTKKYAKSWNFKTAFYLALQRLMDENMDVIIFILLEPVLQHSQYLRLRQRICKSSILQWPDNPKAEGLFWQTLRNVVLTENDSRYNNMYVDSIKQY
Protocol: (§1) Compounds were generally serially diluted (1/3) in DMSO and plated on sterile 384 well tissue culture plates and stored until ready for use. Each ten-point dilution was typically plated in triplicate in parallel rows.
(§2) Fresh blood was collected from normal human donors underwritten informed consent in heparinized syringes on the morning of the assay. The blood was diluted in RPMI-1640 medium and the white blood cells were separated from red blood cells by centrifugation (800 g 15′ 0 acceleration, 0 brake) on a Ficoll cushion. Peripheral blood mononuclear cells (PBMCs) were separated from platelets by a series of low-speed centrifugations (1000RPM 10′) in PBS+5% HI—FBS and 1 mM EDTA. Purified PBMCs were re-suspended in assay medium (RPMI-1640 w Glutamax (Invitrogen) supplemented with 5% HI—FBS, 10 mM HEPES, 50 uM β-mercaptoethanol, and 100 mG/L penicillin/streptomycin cocktail). Viable PBMCs were counted on a hemacytometer and kept on ice until ready for plating.
(§3) A 4× concentration (4 ug/ml or 40 ug/ml for TLR8 or TLR7 assays, respectively) of the TLR7/8 agonist ssRNA40 (IDT) was complexed with 10% DOTAP (Roche) in assay medium for 30 min prior to addition to the PBMC suspension (5 million cells/ml). After addition, the final concentration of ssRNA40 in the TLR7/8 stimulated PBMC suspension was 1 μg/ml for TLR8 assay, and 10 μg/mL for the TLR7 assay. The final DOTAP concentration was 2.5%. Diluted PBMCs (5 million cells/ml) were treated with 4×TLR9 agonist ODN2216 (Invivogen). Final concentration of ODN2216 in TLR9 stimulated PBMC suspension was 0.3 μM.
(§4) Agonist stimulated PBMCs were plated on the compound treated 384 well plates at 150,000 cells/well. Un-stimulated PBMCs were plated as controls on each plate. Plating volume was 40 μL per well. DMSO concentration in each well was 0.25%.
(§5) A separate plate, without compounds, with titrations of ssRNA40 and ODN2216 was included in every assay to measure agonist response of each donor's PBMC prep. Assay plates were placed in a tissue culture incubator (37° C., 5% CO2) for 14-16 hrs. After this incubation, the plates were centrifuged and stored at −20° C. until they were assayed.
(§6) IL-6 TR-FRET Assay for TLR8 activity: • 1) Cisbio Human IL-6 kit, 20,000 tests (62TNFPEC), and GNF High-Base TC 384 well plates (cat #789163G) were used; • 2) the Anti-TIL-6 Cryptate conjugate and the Anti-IL-6 XL665 conjugate were diluted 1:20 in Reconstitution Buffer; • 3) a 1:1 mixture of 3 μl/well Anti-IL-6 Cryptate conjugate and 3 μl/well Anti-IL-6 XL665 conjugate was prepared; • 4) 6 μl/well HTRF dilution mastermix was added to 6 μl of transferred supernatant samples in proxiplates; • 5) The plates were incubated for 3 hrs at rt in the dark; and • 6) the levels of IL-6 production was measured using an Envision plate reader (665 nm (emmission)/590 nm (excitation)) with HTRF settings and ratiometric read-out: (XL665 emission/Eu Cryptate emission)×10,000. IFNα2b AlphaLISA Assay for TLR7 or TLR9 activity After thawing the assay plates, 6 μL of supernatant samples were transferred to a low-volume AlphaPlate 384SW (Perkin-Elmer). The concentration of IFNα in supernatants was measured using the IFNα2b AlphaLISA Assay (Perkin-Elmer: AL297F). 3 μL of IFNα acceptor beads/biotinylated antibody solution was added first, using laboratory automation. After an hour incubation, […] of streptavidin […] bead solution was added. The plates containing this mixture were incubated in the dark for an hour and read on an appropriate plate reader at reading parameters set by the manufacturer. (Envision, EnSpire: Perkin-Elmer).

TLR7 = biological target: T2, TLR7 (Homo sapiens, UniProt Q9NYK1); assay: huPBMC TLR7 Antagonist IFNα Assay; assay type: cell-based; details: human PBMCs stimulated with ssRNA40 10 μg/mL (DOTAP), 14-16 hrs; IFNα2b AlphaLISA read-out
T2 construct: Fresh blood was collected from normal human donors; endogenous in cells; host or cells: human PBMCs from fresh donor blood
T2 sequence (Q9NYK1 27-1049): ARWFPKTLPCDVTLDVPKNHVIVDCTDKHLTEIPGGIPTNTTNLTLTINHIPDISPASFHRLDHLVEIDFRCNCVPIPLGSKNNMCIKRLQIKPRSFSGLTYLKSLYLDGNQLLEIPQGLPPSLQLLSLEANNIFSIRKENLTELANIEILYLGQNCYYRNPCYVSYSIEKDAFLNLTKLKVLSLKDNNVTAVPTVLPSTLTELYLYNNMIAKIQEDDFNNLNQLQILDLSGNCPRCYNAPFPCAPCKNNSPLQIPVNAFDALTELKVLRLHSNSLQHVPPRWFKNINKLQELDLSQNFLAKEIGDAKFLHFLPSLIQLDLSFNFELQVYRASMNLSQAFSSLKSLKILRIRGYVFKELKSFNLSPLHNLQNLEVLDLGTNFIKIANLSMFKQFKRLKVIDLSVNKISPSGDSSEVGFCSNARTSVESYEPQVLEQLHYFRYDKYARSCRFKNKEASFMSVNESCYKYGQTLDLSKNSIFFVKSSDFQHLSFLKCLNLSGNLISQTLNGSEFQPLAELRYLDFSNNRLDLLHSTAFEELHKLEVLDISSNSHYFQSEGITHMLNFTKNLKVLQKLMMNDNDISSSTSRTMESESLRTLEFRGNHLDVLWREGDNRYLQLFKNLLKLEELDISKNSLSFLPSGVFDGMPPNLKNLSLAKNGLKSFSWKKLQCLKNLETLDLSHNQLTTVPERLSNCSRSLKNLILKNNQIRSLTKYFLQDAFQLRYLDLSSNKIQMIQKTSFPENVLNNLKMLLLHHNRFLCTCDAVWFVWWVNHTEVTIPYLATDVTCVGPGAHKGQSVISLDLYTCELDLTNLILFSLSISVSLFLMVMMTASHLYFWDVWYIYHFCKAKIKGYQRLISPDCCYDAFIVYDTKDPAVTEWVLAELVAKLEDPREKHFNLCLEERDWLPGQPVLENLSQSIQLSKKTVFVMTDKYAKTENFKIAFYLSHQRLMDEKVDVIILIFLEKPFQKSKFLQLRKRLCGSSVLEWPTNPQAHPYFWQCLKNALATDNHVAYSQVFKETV
Protocol: as §1, §2, §3, §4, §5, §6

IC50 (TLR8) | IC50 (TLR7) | Structure (SMILES)
433 nM | 397 nM | Cc1cc(N2CCc3c(c(C)nn3CC34CCC(N)(CC3)CC4)C2)c2ccn(C)c2n1 [Compound No. 5, 4-((5-(1,6-dimethyl-1H-pyrrolo[2,3-b]pyridin-4-yl)-3-methyl-4,5,6,7-tetrahydro-1H-pyrazolo[4,3-c]pyridin-1-yl)methyl)bicyclo[2.2.2]octan-1-amine]
 | 13 nM | Cc1cc(N2CCc3c(c(C)nn3CC34CCC(NS(C)(=O)=O)(CC3)CC4)C2)c2cnn(C)c2n1 [Compound No. 48, N-(4-((5-(1,6-dimethyl-1H-pyrazolo[3,4-b]pyridin-4-yl)-3-methyl-4,5,6,7-tetrahydro-1H-pyrazolo[4,3-c]pyridin-1-yl)methyl)bicyclo[2.2.2]octan-1-yl)methanesulfonamide]
129 nM | 12 nM | Cc1cc(N2CCc3c(c(C)nn3CC34CCC(NCC(F)F)(CC3)CC4)C2)c2cnn(C)c2n1 [Compound No. 61, N-(2,2-difluoroethyl)-4-((5-(1,6-dimethyl-1H-pyrazolo[3,4-b]pyridin-4-yl)-3-methyl-4,5,6,7-tetrahydro-1H-pyrazolo[4,3-c]pyridin-1-yl)methyl)bicyclo[2.2.2]octan-1-amine]
125 nM | 124 nM | Cc1nc(N2CCc3c(c(C)nn3CC34CCC(NC(=O)C5CNC5)(CC3)CC4)C2)c2c(n1)c(C)nn2C [compound 32, N-(4-((3-methyl-5-(1,3,5-trimethyl-1H-pyrazolo[4,3-d]pyrimidin-7-yl)-4,5,6,7-tetrahydro-1H-pyrazolo[4,3-c]pyridin-1-yl)methyl)bicyclo[2.2.2]octan-1-yl)azetidine-3-carboxamide]
277 nM | 1030 nM | Cc1cc(N2Cc3cnn(CC45CCC(N)(CC4)CC5)c3C(C)(C)C2)c2cnn(C)c2n1 [compound 60, 4-((5-(1,6-dimethyl-1H-pyrazolo[3,4-b]pyridin-4-yl)-7,7-dimethyl-4,5,6,7-tetrahydro-1H-pyrazolo[4,3-c]pyridin-1-yl)methyl)bicyclo[2.2.2]octan-1-amine]
568 nM | 34 nM | Cc1nn(CC23CCC(N)(CC2)CC3)c2c1CN(c1ccnc(-c3ccccc3)c1)CC2 [compound 63, 4-((3-methyl-5-(2-phenylpyridin-4-yl)-4,5,6,7-tetrahydro-1H-pyrazolo[4,3-c]pyridin-1-yl)methyl)bicyclo[2.2.2]octan-1-amine]
11 nM | 5 nM | Cc1cc(N2CCc3c(c(C)nn3CC34CCC(N5CCCCC5)(CC3)CC4)C2)c2cnn(C)c2n1 [compound 67, 5-(1,6-dimethyl-1H-pyrazolo[3,4-b]pyridin-4-yl)-3-methyl-1-((4-(piperidin-1-yl)bicyclo[2.2.2]octan-1-yl)methyl)-4,5,6,7-tetrahydro-1H-pyrazolo[4,3-c]pyridine]
20 nM | 4 nM | Cc1cc(N2CCc3c(c(C)nn3CC34CCC(N5C[C@H]6CC[C@@H](C5)O6)(CC3)CC4)C2)c2cnn(C)c2n1 [compound 120, (1R,5S)-3-(4-((5-(1,6-dimethyl-1H-pyrazolo[3,4-b]pyridin-4-yl)-3-methyl-4,5,6,7-tetrahydro-1H-pyrazolo[4,3-c]pyridin-1-yl)methyl)bicyclo[2.2.2]octan-1-yl)-8-oxa-3-azabicyclo[3.2.1]octane]
2790 nM | 6 nM | Cc1cc(N2CCc3c(c(C)nn3CC34CCC(NC(=O)CN(C)S(C)(=O)=O)(CC3)CC4)C2)c2cnn(C)c2n1 [compound 138, N-(4-((5-(1,6-dimethyl-1H-pyrazolo[3,4-b]pyridin-4-yl)-3-methyl-4,5,6,7-tetrahydro-1H-pyrazolo[4,3-c]pyridin-1-yl)methyl)bicyclo[2.2.2]octan-1-yl)-2-(N-methylmethylsulfonamido)acetamide]
3540 nM | 67 nM | CC(=O)N(C)CC(=O)NC12CCC(Cn3nc(C)c4c3CCN(c3cc(C)nc5c3cnn5C)C4)(CC1)CC2 [compound 139, N-(4-((5-(1,6-dimethyl-1H-pyrazolo[3,4-b]pyridin-4-yl)-3-methyl-4,5,6,7-tetrahydro-1H-pyrazolo[4,3-c]pyridin-1-yl)methyl)bicyclo[2.2.2]octan-1-yl)-2-(N-methylacetamido)acetamide]
